Source: the kinase profiling compilation of Christmann-Franck et al. (2016)

Legend:
Experiment in all cases: radiometric filter-binding kinase assay, Kinase HotSpot
Conditions in all cases: compound 0.5 µM; ATP 10 µM
ABL1 (human) = ABL1 (human) (UniProt P00519)
ACVRL1 (human) = ACVRL1 (human) (UniProt P37023)
BRSK2 (human) = BRSK2 (human) (UniProt Q8IWQ3)
BTK (human) = BTK (human) (UniProt Q06187)
CAMK2G (human) = CAMK2G (human) (UniProt Q13555)
CAMK4 (human) = CAMK4 (human) (UniProt Q16566)
CDK7 CCNH MNAT1 (human) = CDK7 CCNH MNAT1 (human) (UniProt P50613+P51948+P51946)
CDK9 CCNK (human) = CDK9 CCNK (human) (UniProt O75909+P50750)
CLK1 (human) = CLK1 (human) (UniProt P49759)
CLK3 (human) = CLK3 (human) (UniProt P49761)
CSNK1A1 (human) = CSNK1A1 (human) (UniProt P48729)
CSNK1E (human) = CSNK1E (human) (UniProt P49674)
CSNK2A1 (human) = CSNK2A1 (human) (UniProt P68400)
DYRK2 (human) = DYRK2 (human) (UniProt Q92630)
DYRK3 (human) = DYRK3 (human) (UniProt O43781)
DYRK4 (human) = DYRK4 (human) (UniProt Q9NR20)
EPHA4 (human) = EPHA4 (human) (UniProt P54764)
ERBB2 (human) = ERBB2 (human) (UniProt P04626)
FGFR3 (human) = FGFR3 (human) (UniProt P22607)
GRK4 (human) = GRK4 (human) (UniProt P32298)
GSK3B (human) = GSK3B (human) (UniProt P49841)
HIPK2 (human) = HIPK2 (human) (UniProt Q9H2X6)
MAP3K10 (human) = MAP3K10 (human) (UniProt Q02779)
MAP3K11 (human) = MAP3K11 (human) (UniProt Q16584)
MAP3K3 (human) = MAP3K3 (human) (UniProt Q99759)
MAPK1 (human) = MAPK1 (human) (UniProt P28482)
MINK1 (human) = MINK1 (human) (UniProt Q8N4C8)
NEK3 (human) = NEK3 (human) (UniProt P51956)
NEK7 (human) = NEK7 (human) (UniProt Q8TDX7)
PNCK (human) = PNCK (human) (UniProt Q6P2M8)
PRKACA (human) = PRKACA (human) (UniProt P17612)
RIPK2 (human) = RIPK2 (human) (UniProt O43353)
ROCK1 (human) = ROCK1 (human) (UniProt Q13464)
RPS6KA6 KD1 KD2 (human) = RPS6KA6 KD1 KD2 (human) (UniProt Q9UK32)
RPS6KB2 (human) = RPS6KB2 (human) (UniProt Q9UBS0)
SGK2 (human) = SGK2 (human) (UniProt Q9HBY8)
SRPK2 (human) = SRPK2 (human) (UniProt P78362)
SRPK3 (human) = SRPK3 (human) (UniProt Q9UPE1)
STK10 (human) = STK10 (human) (UniProt O94804)
TEK (human) = TEK (human) (UniProt Q02763)
TNK2 (human) = TNK2 (human) (UniProt Q07912)
ULK1 (human) = ULK1 (human) (UniProt O75385)

Chain of CDK9 CCNK (human) (O75909 whole entry, looked up): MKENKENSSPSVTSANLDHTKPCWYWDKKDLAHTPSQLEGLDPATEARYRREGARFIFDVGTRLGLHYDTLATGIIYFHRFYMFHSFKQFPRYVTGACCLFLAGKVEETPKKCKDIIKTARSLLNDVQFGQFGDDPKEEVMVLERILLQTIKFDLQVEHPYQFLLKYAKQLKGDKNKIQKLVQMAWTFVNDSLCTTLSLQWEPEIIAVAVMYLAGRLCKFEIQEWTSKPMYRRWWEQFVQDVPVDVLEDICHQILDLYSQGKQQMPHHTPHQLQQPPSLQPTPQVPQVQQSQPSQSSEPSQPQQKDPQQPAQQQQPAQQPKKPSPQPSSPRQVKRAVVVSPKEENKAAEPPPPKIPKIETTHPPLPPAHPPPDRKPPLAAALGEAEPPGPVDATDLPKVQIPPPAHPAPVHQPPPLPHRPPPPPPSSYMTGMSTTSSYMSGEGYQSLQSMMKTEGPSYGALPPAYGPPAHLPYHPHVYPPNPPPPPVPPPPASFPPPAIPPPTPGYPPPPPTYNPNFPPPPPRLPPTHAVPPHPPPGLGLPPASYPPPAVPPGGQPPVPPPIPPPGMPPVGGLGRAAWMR
Chain of CDK9 CCNK (human) (P50750 whole entry, looked up): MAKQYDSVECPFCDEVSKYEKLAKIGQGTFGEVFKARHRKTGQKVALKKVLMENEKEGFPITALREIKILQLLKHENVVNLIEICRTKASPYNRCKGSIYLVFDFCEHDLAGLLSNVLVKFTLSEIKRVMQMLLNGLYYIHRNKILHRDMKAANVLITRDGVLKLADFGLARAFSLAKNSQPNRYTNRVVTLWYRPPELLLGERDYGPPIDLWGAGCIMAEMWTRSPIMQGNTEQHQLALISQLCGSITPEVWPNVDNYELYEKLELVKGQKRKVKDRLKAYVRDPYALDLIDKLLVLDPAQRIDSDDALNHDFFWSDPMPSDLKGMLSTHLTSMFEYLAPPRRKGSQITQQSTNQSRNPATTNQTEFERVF
Chain of SGK2 (human) (Q9HBY8 whole entry, looked up): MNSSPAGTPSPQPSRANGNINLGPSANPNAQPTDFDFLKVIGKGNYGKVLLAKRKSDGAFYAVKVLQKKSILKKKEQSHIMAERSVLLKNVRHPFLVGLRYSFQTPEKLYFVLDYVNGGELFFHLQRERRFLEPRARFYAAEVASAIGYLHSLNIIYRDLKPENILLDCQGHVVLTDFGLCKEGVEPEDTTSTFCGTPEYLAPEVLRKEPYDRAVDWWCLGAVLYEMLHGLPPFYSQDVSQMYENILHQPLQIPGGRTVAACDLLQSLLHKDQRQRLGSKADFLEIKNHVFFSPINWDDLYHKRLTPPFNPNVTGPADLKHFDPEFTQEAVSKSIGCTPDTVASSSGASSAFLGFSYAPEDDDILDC
Chain of STK10 (human) (O94804 whole entry, looked up): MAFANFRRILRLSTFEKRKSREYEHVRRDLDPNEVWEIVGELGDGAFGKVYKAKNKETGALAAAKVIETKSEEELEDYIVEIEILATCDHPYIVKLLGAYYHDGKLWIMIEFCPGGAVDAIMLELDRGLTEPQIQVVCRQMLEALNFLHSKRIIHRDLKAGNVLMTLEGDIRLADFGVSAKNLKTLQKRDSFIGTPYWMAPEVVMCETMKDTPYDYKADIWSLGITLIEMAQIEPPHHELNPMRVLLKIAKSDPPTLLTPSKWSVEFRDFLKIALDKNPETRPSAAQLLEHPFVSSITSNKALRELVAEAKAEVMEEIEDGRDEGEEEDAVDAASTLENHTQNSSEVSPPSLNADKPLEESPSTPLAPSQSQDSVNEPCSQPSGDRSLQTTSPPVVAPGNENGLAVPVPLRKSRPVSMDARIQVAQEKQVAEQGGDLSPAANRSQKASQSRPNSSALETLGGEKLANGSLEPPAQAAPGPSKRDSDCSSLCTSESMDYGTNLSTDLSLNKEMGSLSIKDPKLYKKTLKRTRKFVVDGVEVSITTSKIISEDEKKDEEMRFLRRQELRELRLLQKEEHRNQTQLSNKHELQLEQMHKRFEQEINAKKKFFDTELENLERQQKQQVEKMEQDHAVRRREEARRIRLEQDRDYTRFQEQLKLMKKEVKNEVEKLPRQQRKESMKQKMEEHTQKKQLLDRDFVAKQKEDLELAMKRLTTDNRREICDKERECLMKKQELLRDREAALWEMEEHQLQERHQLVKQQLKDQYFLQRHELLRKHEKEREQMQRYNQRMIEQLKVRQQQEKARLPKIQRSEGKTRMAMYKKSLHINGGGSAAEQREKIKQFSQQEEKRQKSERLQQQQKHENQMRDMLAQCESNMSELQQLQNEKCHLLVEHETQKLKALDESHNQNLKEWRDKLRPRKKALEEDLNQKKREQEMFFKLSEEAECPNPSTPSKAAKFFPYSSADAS
Chain of CSNK1A1 (human) (P48729 whole entry, looked up): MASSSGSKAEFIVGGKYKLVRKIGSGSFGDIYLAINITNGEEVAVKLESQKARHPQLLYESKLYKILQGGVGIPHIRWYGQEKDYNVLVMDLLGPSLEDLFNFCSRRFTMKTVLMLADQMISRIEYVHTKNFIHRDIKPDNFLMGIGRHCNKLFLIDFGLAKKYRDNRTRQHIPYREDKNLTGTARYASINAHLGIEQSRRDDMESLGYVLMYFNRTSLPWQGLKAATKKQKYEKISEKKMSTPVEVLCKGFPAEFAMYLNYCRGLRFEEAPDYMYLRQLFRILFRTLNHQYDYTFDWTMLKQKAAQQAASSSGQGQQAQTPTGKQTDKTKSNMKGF
Chain of SRPK2 (human) (P78362 whole entry, looked up): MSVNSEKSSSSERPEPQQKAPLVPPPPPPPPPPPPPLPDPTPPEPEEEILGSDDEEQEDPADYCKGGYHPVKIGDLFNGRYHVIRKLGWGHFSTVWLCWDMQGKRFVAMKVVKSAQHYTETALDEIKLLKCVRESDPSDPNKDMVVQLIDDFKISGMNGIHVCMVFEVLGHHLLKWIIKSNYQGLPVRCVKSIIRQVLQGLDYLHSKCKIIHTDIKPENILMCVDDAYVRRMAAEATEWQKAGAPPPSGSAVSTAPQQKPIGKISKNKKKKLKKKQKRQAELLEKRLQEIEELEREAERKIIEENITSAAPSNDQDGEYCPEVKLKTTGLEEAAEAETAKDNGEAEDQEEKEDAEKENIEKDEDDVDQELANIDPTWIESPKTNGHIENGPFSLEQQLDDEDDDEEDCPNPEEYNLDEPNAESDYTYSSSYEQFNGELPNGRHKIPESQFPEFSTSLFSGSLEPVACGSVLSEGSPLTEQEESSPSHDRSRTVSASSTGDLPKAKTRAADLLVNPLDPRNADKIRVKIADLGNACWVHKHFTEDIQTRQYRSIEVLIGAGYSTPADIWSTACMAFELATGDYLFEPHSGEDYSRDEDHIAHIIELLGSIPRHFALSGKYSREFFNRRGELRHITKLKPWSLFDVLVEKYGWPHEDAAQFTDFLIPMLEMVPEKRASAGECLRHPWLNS
Chain of NEK3 (human) (P51956 whole entry, looked up): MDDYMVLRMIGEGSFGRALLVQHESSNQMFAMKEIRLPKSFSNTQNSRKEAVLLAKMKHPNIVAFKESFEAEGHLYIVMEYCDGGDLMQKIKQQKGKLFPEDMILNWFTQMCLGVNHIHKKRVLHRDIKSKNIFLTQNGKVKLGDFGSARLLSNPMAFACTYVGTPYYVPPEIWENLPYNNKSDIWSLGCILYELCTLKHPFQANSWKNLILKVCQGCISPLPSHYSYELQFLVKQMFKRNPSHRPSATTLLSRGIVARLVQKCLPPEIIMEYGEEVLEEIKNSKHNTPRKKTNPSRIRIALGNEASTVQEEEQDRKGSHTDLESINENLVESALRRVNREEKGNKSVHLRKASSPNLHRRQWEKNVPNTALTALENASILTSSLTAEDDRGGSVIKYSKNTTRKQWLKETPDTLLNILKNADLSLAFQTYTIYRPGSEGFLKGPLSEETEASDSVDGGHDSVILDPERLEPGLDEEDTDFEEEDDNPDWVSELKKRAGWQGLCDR
Chain of MAP3K3 (human) (Q99759 whole entry, looked up): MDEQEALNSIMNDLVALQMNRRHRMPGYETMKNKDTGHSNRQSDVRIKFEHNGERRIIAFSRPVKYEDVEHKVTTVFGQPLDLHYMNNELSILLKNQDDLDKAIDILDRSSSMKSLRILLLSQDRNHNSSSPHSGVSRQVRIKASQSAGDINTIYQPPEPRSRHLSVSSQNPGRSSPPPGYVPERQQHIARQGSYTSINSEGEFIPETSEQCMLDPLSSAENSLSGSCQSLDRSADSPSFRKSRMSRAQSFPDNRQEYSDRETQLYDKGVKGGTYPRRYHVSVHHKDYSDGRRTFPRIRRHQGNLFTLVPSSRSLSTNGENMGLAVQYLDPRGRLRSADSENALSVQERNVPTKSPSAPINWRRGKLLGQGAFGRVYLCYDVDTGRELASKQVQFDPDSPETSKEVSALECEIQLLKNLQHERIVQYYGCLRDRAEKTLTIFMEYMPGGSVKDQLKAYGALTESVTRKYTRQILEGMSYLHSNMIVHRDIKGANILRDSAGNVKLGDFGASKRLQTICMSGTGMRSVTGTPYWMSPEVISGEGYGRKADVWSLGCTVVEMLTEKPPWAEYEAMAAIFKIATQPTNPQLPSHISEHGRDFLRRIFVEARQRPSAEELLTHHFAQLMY
Chain of CAMK4 (human) (Q16566 whole entry, looked up): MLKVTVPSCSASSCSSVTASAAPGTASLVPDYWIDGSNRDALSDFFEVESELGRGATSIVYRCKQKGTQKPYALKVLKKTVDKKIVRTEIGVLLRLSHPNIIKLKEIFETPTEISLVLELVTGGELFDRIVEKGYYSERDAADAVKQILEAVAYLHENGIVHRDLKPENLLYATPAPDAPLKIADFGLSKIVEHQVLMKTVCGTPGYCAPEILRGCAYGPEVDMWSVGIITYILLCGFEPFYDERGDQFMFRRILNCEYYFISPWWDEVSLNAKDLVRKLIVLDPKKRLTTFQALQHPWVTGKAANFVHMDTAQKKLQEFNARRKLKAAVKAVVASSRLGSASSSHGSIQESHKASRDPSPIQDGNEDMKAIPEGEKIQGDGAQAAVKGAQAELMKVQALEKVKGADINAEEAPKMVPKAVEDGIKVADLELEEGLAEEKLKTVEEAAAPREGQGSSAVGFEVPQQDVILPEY

## Cn1cnc2cc3c(Nc4cccc(Br)c4)ncnc3cc21
ABL1 (human)
  residual activity: 32.6%
ACVRL1 (human)
  residual activity: 102%
BRSK2 (human)
  residual activity: 88.6%
BTK (human)
  residual activity: 86.8%
CAMK2G (human)
  residual activity: 104%
CAMK4 (human)
  residual activity: 98.6%
CDK7 CCNH MNAT1 (human)
  residual activity: 99.5%
CDK9 CCNK (human)
  residual activity: 100%
CLK1 (human)
  residual activity: 102%
CLK3 (human)
  residual activity: 100%
CSNK1A1 (human)
  residual activity: 102%
CSNK1E (human)
  residual activity: 90.3%
CSNK2A1 (human)
  residual activity: 99%
DYRK2 (human)
  residual activity: 95.5%
DYRK3 (human)
  residual activity: 102%
DYRK4 (human)
  residual activity: 97.5%
EPHA4 (human)
  residual activity: 80.7%
ERBB2 (human)
  residual activity: 47.4%
FGFR3 (human)
  residual activity: 98.6%
GRK4 (human)
  residual activity: 99.5%
GSK3B (human)
  residual activity: 101%
HIPK2 (human)
  residual activity: 106%
MAP3K10 (human)
  residual activity: 94%
MAP3K11 (human)
  residual activity: 94.8%
MAP3K3 (human)
  residual activity: 109%
MAPK1 (human)
  residual activity: 94.2%
MINK1 (human)
  residual activity: 82.1%
NEK3 (human)
  residual activity: 88.2%
NEK7 (human)
  residual activity: 99.4%
PNCK (human)
  residual activity: 101%
PRKACA (human)
  residual activity: 105%
RIPK2 (human)
  residual activity: 35.6%
ROCK1 (human)
  residual activity: 98.6%
RPS6KA6 KD1 KD2 (human)
  residual activity: 92.5%
RPS6KB2 (human)
  residual activity: 96.8%
SGK2 (human)
  residual activity: 104%
SRPK2 (human)
  residual activity: 97.1%
SRPK3 (human)
  residual activity: 94.9%
STK10 (human)
  residual activity: 35.8%
TEK (human)
  residual activity: 98.9%
TNK2 (human)
  residual activity: 87.3%
ULK1 (human)
  residual activity: 113%
